For this data set the following is noted: 101.33 kPa, Liquid, Pycnometric method.

The source of these data is the NIST ThermoML archive (doi:10.1021/je700492k).

SMILES strings stand for the structures. ± gives the expanded uncertainty stated by the source.

`CC(=O)CC(C)=O` [2,4-pentanedione]: the mass density (in general, mass per unit of volume) (298.15 K) was 972.1 ± 0.9 kg/m3; the mass density (313.15 K) turned out to be 954 ± 0.9 kg/m3; the mass density (328.15 K) was 939.3 ± 0.8 kg/m3.
